Here are results for 14 compounds from PubChem BioAssay (NCI).

Among the test systems are 786-0 renal; ACHN renal; MDA-MB-435; MOLT-4 leukemia; NCI-H23 lung; NCI-H522 lung; NCI/ADR-RES ovarian; OVCAR-5 ovarian; OVCAR-8 ovarian; SF-295 CNS; T-47D breast; TK-10 renal.
Common to all, as to experiment: growth of human tumour cells (NCI), 48 h

The structures appear in SMILES notation.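 1) Cells in 96-well plates. 2) Compound, 48 h, 5 concentrations. 3) Linear interpolation between surrounding doses. 4) Unreached endpoint = highest concentration. At the TGI there is no net growth.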

Consider `CCN(CC)CCNC(=O)c1ccc(I)cc1`, for which the TGI in the experiment on 786-0 renal, in the experiment on ACHN renal, with MDA-MB-435, with MOLT-4 leukemia, in the experiment with NCI-H23 lung and in the experiment on NCI-H522 lung was greater than 100 µM in each case. Besides, the TGI with NCI/ADR-RES ovarian, with OVCAR-5 ovarian, in the experiment with OVCAR-8 ovarian, in the experiment on SF-295 CNS, with T-47D breast and with TK-10 renal was greater than 100 µM each time.

With `Brc1c(C#CCC(c2ccccc2)(c2ccccc2)c2ccccc2)ccc(C#CCC(c2ccccc2)(c2ccccc2)c2ccccc2)c1Br`, the TGI in the experiment with 786-0 renal, with ACHN renal, in the experiment on MDA-MB-435, with MOLT-4 leukemia, in the experiment on NCI-H23 lung and in the experiment with NCI-H522 lung was greater than 100 µM in each case. The TGI with NCI/ADR-RES ovarian, with OVCAR-5 ovarian, with OVCAR-8 ovarian, with SF-295 CNS, in the experiment on T-47D breast and in the experiment with TK-10 renal was greater than 100 µM in each case.

For `C=C(C)CC1(O)C(=O)C(OCC)=C1OCC` (stereo not drawn), the TGI in the experiment on 786-0 renal, with ACHN renal, in the experiment with MDA-MB-435, with MOLT-4 leukemia, in the experiment on NCI-H23 lung and in the experiment with NCI-H522 lung was greater than 100 µM each time. Besides, the TGI with NCI/ADR-RES ovarian, in the experiment with OVCAR-5 ovarian, in the experiment on OVCAR-8 ovarian, in the experiment with SF-295 CNS, with T-47D breast and in the experiment with TK-10 renal was greater than 100 µM each time.

On to `Cc1c2c(n(CCc3ccccc3)c1C)N(C)N=C(C#N)S2(=O)=O`, for which the TGI in the experiment with 786-0 renal, in the experiment with ACHN renal, in the experiment on MDA-MB-435, in the experiment with MOLT-4 leukemia, with NCI-H23 lung and in the experiment on NCI-H522 lung was greater than 100 µM throughout. Moreover, the TGI in the experiment on NCI/ADR-RES ovarian, in the experiment on OVCAR-5 ovarian, with OVCAR-8 ovarian, in the experiment with SF-295 CNS, with T-47D breast and in the experiment with TK-10 renal was greater than 100 µM in each case.

Regarding `O=C1N2CCc3c([nH]c4ccccc34)C23CC2CCCCC12S3` (stereo not drawn), the TGI with 786-0 renal, with ACHN renal, with MDA-MB-435, with MOLT-4 leukemia, in the experiment with NCI-H23 lung and in the experiment on NCI-H522 lung was greater than 100 µM each time. The TGI in the experiment with NCI/ADR-RES ovarian, in the experiment on OVCAR-5 ovarian, in the experiment with OVCAR-8 ovarian, in the experiment on SF-295 CNS, in the experiment on T-47D breast and in the experiment on TK-10 renal was greater than 100 µM each time.

Regarding `CCOc1ccc(NC(=O)/C(=N\NC(C)(C)C)C2C(=O)Nc3ccccc3S2=O)cc1` (stereo not drawn), the TGI in the experiment on 786-0 renal, in the experiment on ACHN renal, in the experiment on MDA-MB-435, in the experiment with MOLT-4 leukemia, with NCI-H23 lung and in the experiment with NCI-H522 lung was greater than 100 µM in each case. For the same compound, the TGI in the experiment with NCI/ADR-RES ovarian, in the experiment with OVCAR-5 ovarian, with OVCAR-8 ovarian, with SF-295 CNS, in the experiment with T-47D breast and in the experiment on TK-10 renal was greater than 100 µM throughout.

As for `O=C(CCCNc1nc(-c2ccccc2)cs1)c1cccs1`, the TGI in the experiment with 786-0 renal, in the experiment on ACHN renal, in the experiment with MDA-MB-435, with MOLT-4 leukemia, in the experiment on NCI-H23 lung and in the experiment with NCI-H522 lung was greater than 100 µM throughout. Further, the TGI in the experiment on NCI/ADR-RES ovarian, with OVCAR-5 ovarian, in the experiment on OVCAR-8 ovarian, in the experiment on SF-295 CNS, with T-47D breast and in the experiment with TK-10 renal was greater than 100 µM throughout.

Turning to `Cc1cc(N=Nc2c(O)ccc3ccccc23)ccc1N=Nc1cccc([N+](C)(C)C)c1`, the TGI in the experiment with 786-0 renal was greater than 92 µM; in the experiment with ACHN renal it was greater than 84.7 µM; in the experiment on MDA-MB-435 it was greater than 74.5 µM; in the experiment with MOLT-4 leukemia, greater than 100 µM; in the experiment with NCI-H23 lung, 52 µM; in the experiment on NCI-H522 lung it was greater than 26.1 µM. Besides, the TGI is greater than 100 µM in the experiment with NCI/ADR-RES ovarian; 60.8 µM in the experiment on OVCAR-5 ovarian; 57.3 µM with OVCAR-8 ovarian; 51.9 µM with SF-295 CNS; greater than 100 µM in the experiment with T-47D breast; 49.5 µM in the experiment with TK-10 renal.

With `CC1=CCC2C3(C)CCC2(C(C)C)C1C3` (stereo not drawn) (tested in a mixture with another compound), the TGI is 47.3 µM in the experiment with 786-0 renal; 36.9 µM in the experiment on ACHN renal; 88.2 µM in the experiment with MDA-MB-435; 75.3 µM with MOLT-4 leukemia; greater than 100 µM in the experiment on NCI-H23 lung; 39.3 µM in the experiment with NCI-H522 lung. In addition, the TGI in the experiment on NCI/ADR-RES ovarian was 37.7 µM; with OVCAR-5 ovarian it was 37.6 µM; with OVCAR-8 ovarian, 33.2 µM; in the experiment with SF-295 CNS it was 40.3 µM; in the experiment with T-47D breast it was greater than 100 µM; in the experiment with TK-10 renal, 78.7 µM.

As for `CCOC(=O)c1sc(N/N=C2\NC(=O)/C(=C/c3ccc([N+](=O)[O-])cc3)S2)nc1C`, the TGI in the experiment with 786-0 renal was found to be 33.7 µM; in the experiment on ACHN renal, 58.3 µM; in the experiment on MDA-MB-435, 77.3 µM; with MOLT-4 leukemia it was 31.1 µM; in the experiment with NCI-H23 lung it was 80.5 µM; in the experiment on NCI-H522 lung it was 40.9 µM. Besides, the TGI in the experiment with NCI/ADR-RES ovarian was 66.1 µM; in the experiment on OVCAR-5 ovarian, greater than 100 µM; in the experiment on OVCAR-8 ovarian it was 65.2 µM; in the experiment with SF-295 CNS, greater than 100 µM; in the experiment with T-47D breast it was 45.4 µM; in the experiment on TK-10 renal, greater than 100 µM.

As for `C/C=C1/CN2CCC3(O)c4ccccc4N4C=C(C(=O)OC)C1CC2C43O` (stereo not drawn), the TGI with 786-0 renal, in the experiment on ACHN renal, in the experiment on MDA-MB-435, in the experiment with MOLT-4 leukemia, in the experiment with NCI-H23 lung and in the experiment on NCI-H522 lung was greater than 100 µM throughout. Also, the TGI in the experiment on NCI/ADR-RES ovarian, with OVCAR-5 ovarian, in the experiment on OVCAR-8 ovarian, in the experiment with SF-295 CNS, in the experiment with T-47D breast and in the experiment with TK-10 renal was greater than 100 µM each time.

Take `CC(C)(C)OC(=O)N(O)CCCn1cnc2c(N)ncnc21`: the TGI in the experiment on 786-0 renal, in the experiment on ACHN renal, in the experiment on MDA-MB-435, in the experiment with MOLT-4 leukemia, with NCI-H23 lung and in the experiment with NCI-H522 lung was greater than 100 µM in each case. The TGI in the experiment on NCI/ADR-RES ovarian, with OVCAR-5 ovarian, in the experiment with OVCAR-8 ovarian, in the experiment on SF-295 CNS, with T-47D breast and with TK-10 renal was greater than 100 µM in each case.

Turning to `Cc1ccc(N=N/C(=N/NC(=O)c2cc(Cl)ccc2C(=O)c2ccccc2)c2ccc(N(CCC#N)CCC#N)cc2C)cc1`, the TGI is 53.7 µM in the experiment with 786-0 renal; greater than 100 µM in the experiment on ACHN renal; 82 µM with MDA-MB-435; 26.2 µM in the experiment on MOLT-4 leukemia; greater than 100 µM with NCI-H23 lung; 19.9 µM in the experiment on NCI-H522 lung. For the same compound, the TGI in the experiment on NCI/ADR-RES ovarian was 62.1 µM; in the experiment with OVCAR-5 ovarian, greater than 100 µM; in the experiment on OVCAR-8 ovarian, 29.9 µM; in the experiment with SF-295 CNS it was 86.9 µM; in the experiment on T-47D breast it was 27.9 µM; in the experiment on TK-10 renal, greater than 100 µM.

With `CC(=O)Oc1cc2c(c3ncccc13)OC(C)(C)C2`, the TGI in the experiment with 786-0 renal is 30.3 µM; in the experiment on ACHN renal, 23.9 µM; with MDA-MB-435, 24 µM; in the experiment with MOLT-4 leukemia it was 29.9 µM; in the experiment on NCI-H23 lung, greater than 100 µM; with NCI-H522 lung, 8.26 µM. Besides, the TGI stood at 23.9 µM in the experiment with NCI/ADR-RES ovarian; 29 µM in the experiment with OVCAR-5 ovarian; 74.8 µM in the experiment on OVCAR-8 ovarian; 36.1 µM with SF-295 CNS; 81.2 µM in the experiment on T-47D breast; 26.3 µM with TK-10 renal.
